What was measured:
[1] = biological target: T1, Monocarboxylate transporter 6 (MCT6) (Homo sapiens, UniProt O15375); assay type: cell-based
T1 sequence (O15375 1-505): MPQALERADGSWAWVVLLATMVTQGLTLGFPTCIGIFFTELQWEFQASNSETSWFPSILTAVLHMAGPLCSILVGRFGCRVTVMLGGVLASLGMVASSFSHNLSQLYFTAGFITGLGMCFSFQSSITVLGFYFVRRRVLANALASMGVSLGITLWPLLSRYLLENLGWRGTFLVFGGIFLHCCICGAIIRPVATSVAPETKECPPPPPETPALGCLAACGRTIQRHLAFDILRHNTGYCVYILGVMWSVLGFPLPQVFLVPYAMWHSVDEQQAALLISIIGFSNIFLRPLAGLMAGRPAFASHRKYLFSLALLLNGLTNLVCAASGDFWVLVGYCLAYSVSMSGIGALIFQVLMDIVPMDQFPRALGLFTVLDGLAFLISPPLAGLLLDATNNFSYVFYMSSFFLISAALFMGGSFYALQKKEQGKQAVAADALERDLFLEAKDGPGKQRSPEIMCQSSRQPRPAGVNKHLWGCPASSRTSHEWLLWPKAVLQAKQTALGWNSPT

[2] = biological target: T1, Monocarboxylate transporter 6 (MCT6); test: inhibition of [3H]bumetanide uptake in MCT6-expressing oocytes; assay type: cell-based
[3] = substrate: CCCCNc1cc(C(=O)O)cc(S(N)(=O)=O)c1Oc1ccccc1; test: radiolabeled uptake in MCT6-expressing versus water-injected oocytes; assay type: cell-based, Homo sapiens

Molecule: O=c1c(O)c(-c2ccc(O)cc2O)oc2cc(O)cc(O)c12 [morin]
- IC50 [1]: 33.1 ± 3.29 µM

Molecule: O=C(CCc1ccc(O)cc1)c1c(O)cc(O)cc1O [phloretin]
- Ki [2]: 22.8 ± 6.95 µM

Molecule: O=c1c(O)c(-c2ccc(O)c(O)c2)oc2cc(O)cc(O)c12 [quercetin]
- IC50 [1]: 25.3 ± 3.36 µM

B1: Monocarboxylate transporter 6 (MCT6) (Homo sapiens) (protein)
chain: MPQALERADGSWAWVVLLATMVTQGLTLGFPTCIGIFFTELQWEFQASNSETSWFPSILTAVLHMAGPLCSILVGRFGCRVTVMLGGVLASLGMVASSFSHNLSQLYFTAGFITGLGMCFSFQSSITVLGFYFVRRRVLANALASMGVSLGITLWPLLSRYLLENLGWRGTFLVFGGIFLHCCICGAIIRPVATSVAPETKECPPPPPETPALGCLAACGRTIQRHLAFDILRHNTGYCVYILGVMWSVLGFPLPQVFLVPYAMWHSVDEQQAALLISIIGFSNIFLRPLAGLMAGRPAFASHRKYLFSLALLLNGLTNLVCAASGDFWVLVGYCLAYSVSMSGIGALIFQVLMDIVPMDQFPRALGLFTVLDGLAFLISPPLAGLLLDATNNFSYVFYMSSFFLISAALFMGGSFYALQKKEQGKQAVAADALERDLFLEAKDGPGKQRSPEIMCQSSRQPRPAGVNKHLWGCPASSRTSHEWLLWPKAVLQAKQTALGWNSPT
- Km [3]: 60.5 ± 14.1 µM
